According to US10927117B2 (BEIGENE SWITZERLAND GMBH, priority 2016, dated 2021):

Experiments:
[1] = test system: 7 major human CYPs
[2] = test system: Waldenstrom's Macroglobulinemia (WM); assay: Phase 1 trial in patients with Waldenstrom's Macroglobulinemia (WM); type: in vivo, human
Procedure: The dose-escalation component of the trail tested total daily doses ranging from 40 mg to 320 mg, and the ongoing dose-expansion phase is testing doses of 160 mg twice a day (BID) or 320 mg once a day (QD). As of Mar. 31, 2017, 48 patients with WM were enrolled in the study. Responses were determined according to the modified Sixth International Workshop on WM (IWWM) criteria.

[3] = Metabolism in human liver microsomes (responsible CYP isoform)
[4] = test system: systemic REC-1 MCL engrafts; assay: Efficacy study in systemic REC-1 xenograft model; type: in vivo, NOD/SCID mice; settings: different dose levels BID p.o., 71 days
Procedure: Animals were pre-treated with cyclophosphamide (prepared in saline, 150 mpk i.p.) and disulfiram (prepared in 0.8% TW-80 in saline, 125 mpk p.o., one hour after each dose of cyclophosphamide) once daily for two days. Animals were then inoculated with REC-1 cells 24 hours after the second dose of cyclophosphamide. On the day of implantation, cell culture medium was replaced with fresh medium. Four hours later, media was removed and cells were collected as described above. Cells were re-suspended in cold (4° C.) PBS to give a final concentration of 1×10^8 cells/ml. Resuspended cells were placed on ice prior to implantation. Each animal was injected intravenously via tail vein with 1×10^7 cells in […] of cell suspension.
For in vivo efficacy studies, starting from day 8 after cell inoculation, animals were randomly assigned into desired number of groups with 10 mice per group. […] Body weight was assessed immediately before dosing and volume dosed was adjusted accordingly. Body weight was recorded twice weekly (changed to three times per week from day 33). […] In the case of severe toxic effect, such as loss of movement, mice were euthanized and scored as death.
For Data Analysis: Survival analysis was performed by Kaplan-Meier method. […] For each group, median survival time (MST), range of survival time (RST) with 95% confidence interval and increase in life-span (ILS) were calculated. […]

[5] = test system: Rec-1 cells (MCL cell line); assay: Tumor cell proliferation, CellTiter-Glo, Rec-1; type: cell-based; settings: Homo sapiens, Rec1, 144 h, Rec-1 cell line, 6-day exposure, mean of 3 independent assays, read-out: Potency IC50
Procedure: 3 MCL cell lines (Rec-1, Mino and JEKO-1) and an ABC type diffuse large B-cell lymphoma cell line (TMD8) were used in this study. Cell lines were maintained in RPMI-1640 supplemented with 10% fetal bovine serum/FBS (Thermo Scientific); 100 units/ml penicillin (Gibco) and 0.1 mg/ml streptomycin (Gibco) and kept at 37° C. in a humidified atmosphere of 5% CO2 in air. Cell lines were reinstated from frozen stocks that were laid down within 30 passages from the original cells purchased.
The growth-inhibitory activity of compounds in Rec-1, Mino, JEKO-1 and TMD-8 cells was determined using CellTiter-Glo luminescent cell viability assay (Promega). The number of cells seeded per well of a 96-well plate was optimized for each cell line to ensure logarithmic growth over 6 days treatment period. Cells were treated in triplicate with a 10-point dilution series. […] Mixture was mixed on an orbital shaker for 2 minutes to allow cell lysis, followed by 10 minutes incubation at room temperature to allow development and stabilization of luminescent signal, which corresponded to quantity of ATP and thus the quantity of metabolically active cells. Luminescent signal was measured using PHERAstar FS reader (BMG Labtech). IC50 values for cell viability were determined with GraphPad Prism software and were the mean of 3 independent assays.

[6] = test system: TMD-8 DLBCL xenografts; assay: Efficacy study in TMD-8 xenograft model; type: in vivo, NOD/SCID mice
Procedure: Animals were pre-treated with cyclophosphamide (prepared in saline, 150 mg/kg i.p.) and disulfiram (prepared in 0.8% Tween 80 in saline, 125 mg/kg p.o., one hour after each dose of cyclophosphamide) once daily for two days Animals were then inoculated with TMD-8 cells 24 hours after the second dose of cyclophosphamide. On the day of implantation, cell culture medium was replaced with fresh medium. Four hours later, media was removed and cells were collected as described above. Cells were re-suspended in cold (4° C.) PBS and same volume of matrigel (BD, Cat #356237) was added to give a final concentration of 2.5×10^7 cells/ml. Resuspended cells were placed on ice prior to inoculation The right axilla region of each mouse was cleaned with 75% ethanol prior to cell inoculation. Each animal was injected subcutaneously with 5×10^6 cells in 200 μl of cell suspension in the right front flank via a 26-gauge needle.
For in vivo efficacy studies, starting from day 3 after cell inoculation, animals were randomly assigned into desired number of groups with 10 mice per group. […] Treatments were administered by oral gavage (p.o.) in a volume of 10 ml/kg body weight. Body weight was assessed immediately before dosing and volume dosed was adjusted accordingly. Tumor volume was measured twice weekly in two dimensions using a calliper (measureable from day 11 post inoculation in this study). Tumor volume was calculated using the formula: V=0.5×(a×b^2) where a and b are the long and short diameters of the tumor, respectively. Statistical analysis was conducted using the student T-test. P<0.05 was considered statistically significant. One individual was responsible for tumor measurement for the entire duration of the study. Body weights were also recorded twice weekly. Mice were also being monitored daily for clinical signs of toxicity for the duration of the study.

## C=CC(=O)N1CCC([C@@H]2CCNc3c(C(N)=O)c(-c4ccc(Oc5ccccc5)cc4)nn32)CC1 [Compound 1, (S)-7-(1-acryloylpiperidin-4-yl)-2-(4-phenoxyphenyl)-4,5,6,7-tetra-hydropyrazolo[1,5-a]pyrimidine-3-carboxamide]
[1]
  time-dependent CYP inhibition potential: unlikely to be time dependent CYP inhibitors
[2]
  discontinuation for Compound 1-related toxicity: no discontinuation
  events leading to treatment discontinuation: Three events
  serious AEs assessed to be possibly related: Five
[2]; 42 evaluable patients
  major response rate: 76%
  partial responses: 33%
[2]; 42 evaluable patients, median follow-up 12.3 months
  overall response rate (ORR): 90%
[2]; 48 patients
  AE anemia: 15%
  AE constipation: 25%
  AE cough: 15%
  AE diarrhea: 19%
  AE epistaxis: 19%
  AE headache: 15%
  AE nausea: 17%
  AE neutropenia: 13%
  AE rash: 13%
  AE upper respiratory tract infection: 31%
  grade 3 or 4 anemia: 8%
  grade 3 or 4 diarrhea: 2%
  grade 3 or 4 headache: 2%
  grade 3 or 4 neutropenia: 8%
[2]; 48 patients, any attribution
  AE petechiae/purpura/contusion: 35%
[2]; all grade 1 or 2
  cases of atrial fibrillation: three cases
[2]; hemothorax
  serious hemorrhage: one case
[3]
  major CYP isoform responsible for the metabolism: CYP3A

## C=CC(=O)N1CCC([C@@H]2CCNc3c(C(N)=O)c(-c4ccc(Oc5ccccc5)cc4)nn32)CC1 [Crystalline Form A, (S)-7-(1-acryloylpiperidin-4-yl)-2-(4-phenoxyphenyl)-4,5,6,7-tetra-hydropyrazolo[1,5-a]pyrimidine-3-carboxamide]
[4]
  anti-tumor activity (overall survival): dose-dependent anti-tumor activity
[5]
  IC50: 0.36 nM
[6]; all treatment groups
  impact on animal body weight: no significant impact on animal body weight
[6]; different dose levels BID p.o., 39 days
  anti-tumor effects: dose-dependent anti-tumor effects
[6]; lowest dose tested, BID p.o.
  anti-tumor activity at lowest dose tested: strong anti-tumor activity
